Here are results for 8 compounds from patent publication US20110033397A1, “Anti-Aging Compositions Comprising Menyanthes Trifoliata Leaf Extracts And Methods Of Use Thereof” (priority 2006, published 2011).

Molecules are shown by their SMILES. Like-named read-outs stand apart in the source and are kept apart here.

Holding throughout (assay type): biochemical
For test [1], the target named is T1, Recombinant human MMP-1 enzyme (Homo sapiens, UniProt P03956).
T1 construct: purchased
T1 sequence (P03956 100-469): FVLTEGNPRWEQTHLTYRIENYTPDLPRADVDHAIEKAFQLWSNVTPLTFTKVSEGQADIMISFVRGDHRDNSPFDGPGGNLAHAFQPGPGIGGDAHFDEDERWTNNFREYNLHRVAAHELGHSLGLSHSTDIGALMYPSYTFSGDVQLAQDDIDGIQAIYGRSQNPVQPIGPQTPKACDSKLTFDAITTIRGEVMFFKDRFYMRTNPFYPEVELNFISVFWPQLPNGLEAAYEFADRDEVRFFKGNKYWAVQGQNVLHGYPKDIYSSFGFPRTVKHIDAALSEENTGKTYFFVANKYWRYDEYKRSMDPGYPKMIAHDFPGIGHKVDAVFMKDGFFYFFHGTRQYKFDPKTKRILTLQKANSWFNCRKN
The experiment in a line: In vitro inhibition of MMP-1 activity. Particulars: for in vitro MMP-1 inhibition activity, in words: summary of Tables 2 and 4. The text has this: In vitro specific inhibition of MMP-2 and MMP-9 activity was estimated with assay kits from Biomol®. Recombinant human MMP-1 enzyme may be obtained from any commercially available source. […] Therefore, a lower value indicates a stronger MMP inhibition.
In vitro specific inhibition of MMP-2 and MMP-9 activity is estimated with assay kits from Biomol®. Recombinant human MMP-1 enzyme is obtained from any commercially available source.

A further test deals with T2, MMP-9 (Homo sapiens, UniProt P14780).
T2 construct: purchased Biomol
T2 sequence (P14780 107-444 limits assumed): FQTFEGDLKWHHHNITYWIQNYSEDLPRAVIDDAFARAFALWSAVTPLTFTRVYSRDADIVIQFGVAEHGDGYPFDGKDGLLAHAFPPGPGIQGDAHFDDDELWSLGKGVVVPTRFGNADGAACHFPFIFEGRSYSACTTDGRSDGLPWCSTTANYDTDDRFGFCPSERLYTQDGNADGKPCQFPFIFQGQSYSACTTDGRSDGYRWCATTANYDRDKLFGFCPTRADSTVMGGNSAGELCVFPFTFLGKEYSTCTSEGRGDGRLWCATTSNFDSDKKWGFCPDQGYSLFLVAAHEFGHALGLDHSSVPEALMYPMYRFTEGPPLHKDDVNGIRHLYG
The experiment in a line: In vitro specific inhibition of MMP-9 activity (Biomol assay kit). Particulars: for IC50: selected standards, Table 4, read-out: inhibition expressed as IC50 against MMP-9 (converted); for in vitro MMP-9 inhibition activity, in words: summary of Tables 2 and 4. How it is done: (§1) Several extracts and sub-fractions from the leaves of Menyanthes trifoliata were prepared by liquid-liquid partitioning and fractionation on a Sephadex LH20 gel filtration column (see example 1) and evaluated for specific anti-MMP activity. In vitro specific inhibition of MMP-2 and MMP-9 activity was estimated with assay kits from Biomol®. Recombinant human MMP-1 enzyme may be obtained from any commercially available source. […] Therefore, a lower value indicates a stronger MMP inhibition.
(§2) To further understand which agents may be contributing to the MMP-1, 2, 9 inhibition activity, standards of the different phenol acids, flavonoids and coumarins, identified in Menyanthes trifoliata extracts, were tested for their in vitro inhibition of MMPs-1, 2 and 9. In vitro specific inhibition of MMP-2 and MMP-9 activity is estimated with assay kits from Biomol®. Recombinant human MMP-1 enzyme is obtained from any commercially available source.

Another test has as its target T3, MMP-2 (Homo sapiens, UniProt P08253).
T3 construct: purchased Biomol
The experiment in a line: In vitro specific inhibition of MMP-2 activity (Biomol assay kit). Particulars: for IC50: selected standards, Table 4, read-out: inhibition expressed as IC50 against MMP-2 (converted); for in vitro MMP-2 inhibition activity, in words: summary of Tables 2 and 4. The method, then:
as §1, §2

The nature of test [2]: Peroxynitrite scavenging (ABEL peroxynitrite antioxidant test kit with Pholasin). Particulars: summary of Table 6. How it is done: Assay was performed with the ABEL® peroxynitrite antioxidant test kit with Pholasin®. Standards of different phenolic acids and flavonoids, identified in […] trifoliata extracts, were tested for their in vitro peroxynitrite scavenging activity. Assay was performed with the ABEL® peroxynitrite antioxidant test kit with Pholasin®.

Setting [3] is: selected standards, Table 4, read-out: inhibition expressed as IC50 against MMP-1 (converted).

T3 sequence (P08253 110-446 limits assumed): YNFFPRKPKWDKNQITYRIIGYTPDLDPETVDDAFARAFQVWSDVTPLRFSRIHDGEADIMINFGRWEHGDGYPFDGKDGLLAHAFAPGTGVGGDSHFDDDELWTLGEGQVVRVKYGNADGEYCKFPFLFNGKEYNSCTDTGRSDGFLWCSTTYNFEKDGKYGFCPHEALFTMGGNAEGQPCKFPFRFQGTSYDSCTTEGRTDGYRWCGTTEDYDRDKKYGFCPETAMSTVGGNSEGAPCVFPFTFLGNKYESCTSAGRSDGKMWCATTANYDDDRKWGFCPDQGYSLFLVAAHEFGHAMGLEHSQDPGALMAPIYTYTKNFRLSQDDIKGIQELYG

A word on the IC50: it is the point on the concentration scale where inhibition reaches its midpoint. `COc1cc2ccc(=O)oc2cc1OC` [Scoparone]: the IC50 in test [1] (setting [3]) is 72.7 µM; at MMP-9, 48.5 µM; on MMP-2 it was 87.3 µM. Besides, the “in vitro MMP-1 inhibition activity, in words” value in test [1] is “strong”. Also, the “in vitro MMP-9 inhibition activity, in words” value on MMP-9 is given as “strong”. In addition, the “in vitro MMP-2 inhibition activity, in words” value on MMP-2 is on record as “strong”.
With `COc1cc(/C=C/C(=O)O)ccc1O` [ferulic acid], the values for the IC50 (in test [1] (setting [3]); at MMP-9; on MMP-2) were 144 µM, 103 µM and 113 µM, respectively. Besides, the “in vitro MMP-1 inhibition activity, in words” value in test [1] is reported as “strong”. For the same compound, the “in vitro MMP-9 inhibition activity, in words” value on MMP-9 is on record as “strong”. Also, the “peroxynitrite scavenging activity, in words” value in test [2] was “strong”. Besides, at MMP-2, the “in vitro MMP-2 inhibition activity, in words” value is on record as “strong”.
In the case of `O=c1c(O)c(-c2ccc(O)c(O)c2)oc2cc(O)cc(O)c12` [Quercetin], in test [1], the “in vitro MMP-1 inhibition activity, in words” value is recorded as “strong”. In addition, on MMP-9, the IC50 is 62.9 µM and the “in vitro MMP-9 inhibition activity, in words” value was “strong”. Besides, the “peroxynitrite scavenging activity, in words” value in test [2] is listed as “strong”. Moreover, at MMP-2, the IC50 was 33.1 µM and the “in vitro MMP-2 inhibition activity, in words” value is on record as “strong”.
With `COc1cc2ccc(=O)oc2cc1O` [Scopoletin], the concentration for half-maximal inhibition (IC50) in test [1] (setting [3]) was 78.1 µM. In test [1], the “in vitro MMP-1 inhibition activity, in words” value is reported as “strong”. In addition, on MMP-9, the IC50 is 130 µM and the “in vitro MMP-9 inhibition activity, in words” value is “strong”. Also, on MMP-2, the half-maximal inhibitory concentration (IC50) was 93.7 µM and the “in vitro MMP-2 inhibition activity, in words” value was “strong”.
As to `O=c1c(O[C@@H]2O[C@H](CO)[C@@H](O)[C@H](O)[C@H]2O)c(-c2ccc(O)c(O)c2)oc2cc(O)cc(O)c12` [Iso-quercitrin], the half-inhibitory concentration (IC50) in test [1] was 49.5 µM; at MMP-9, 198 µM; on MMP-2 it was 21.5 µM.
Consider `O=C(O)c1ccc(O)c(O)c1` [Protocatechuic acid], for which, in test [2], the “peroxynitrite scavenging activity, in words” value is “strong”.
Regarding `O=C(O)c1ccc(O)cc1` [p-hydroxy-benzoic acid], in test [1], the “in vitro MMP-1 inhibition activity, in words” value is given as “not”. On MMP-9, the “in vitro MMP-9 inhibition activity, in words” value was “not”.
As to `C[C@@H]1O[C@@H](OC[C@H]2O[C@@H](Oc3c(-c4ccc(O)c(O)c4)oc4cc(O)cc(O)c4c3=O)[C@H](O)[C@@H](O)[C@@H]2O)[C@H](O)[C@H](O)[C@H]1O` [Rutin], the IC50 in test [1] (setting [3]) was 65.5 µM; on MMP-9, 70.4 µM; on MMP-2, 45.9 µM.
